Experimental data from patent US20160122307A1, “PERHYDROQUINOXALINE DERIVATIVES” (DR. AUGUST WOLFF GMBH & CO. KG ARZNEIMITTEL, priority 2013, published 2016).
pEC50: −log10 of the molar value. Read-outs that look alike come from different tables or passages of the source.

Biological target: Human opiate κ receptors (Homo sapiens, UniProt P41145)
Test: κ opioid receptor functional assay, [35S]GTPγS binding (assay C)
Assay type: biochemical
Conditions: for activation at 1 µM: 0.5 h, read-out: % activation functional assay at 1 μM
[1] = read-out: EC50 (nM) [35S]GTPγS binding

Human opiate κ receptors, sequence (P41145 whole entry): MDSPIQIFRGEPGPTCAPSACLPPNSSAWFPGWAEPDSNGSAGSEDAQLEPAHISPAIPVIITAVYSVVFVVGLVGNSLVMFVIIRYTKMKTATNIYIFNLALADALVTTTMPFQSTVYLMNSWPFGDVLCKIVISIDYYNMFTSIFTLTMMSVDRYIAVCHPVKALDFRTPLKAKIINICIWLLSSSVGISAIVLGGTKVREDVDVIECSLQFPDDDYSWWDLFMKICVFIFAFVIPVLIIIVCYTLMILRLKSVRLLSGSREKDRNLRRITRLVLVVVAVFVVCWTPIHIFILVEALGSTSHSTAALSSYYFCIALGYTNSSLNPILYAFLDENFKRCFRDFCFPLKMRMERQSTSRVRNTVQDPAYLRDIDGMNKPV

Row | SMILES | activation at 1 µM [%] | EC50 (GTPγS EC50 (nM)) [nM] | other results
1 | CC(C)C(=O)N1CCN(C(=O)Cc2ccc(Cl)c(Cl)c2)C2C(N3CCCC3)CCCC21 (racemic) [Example 26] | 119 | < 10 | –
2 | COC(=O)CC(=O)N1CCN(C(=O)Cc2ccc(Cl)c(Cl)c2)C2C(N3CCC(O)C3)CCCC21 (centres unmarked) [U, reference compound] | – | – | activation (% of control) at 1 μM: 86 % of control; EC50 [1]: 170 nM
3 | COC(=O)CCC(=O)N1CCN(C(=O)Cc2ccc(Cl)c(Cl)c2)[C@H]2[C@H]1CCC[C@@H]2N1CCCC1 (racemic) [Q, reference compound] | – | – | pEC50: 6.28; activation (% of control) at 1 μM: 61 % of control
4 | COC(=O)N1CCN(C(=O)Cc2ccc(Cl)c(Cl)c2)[C@H]2[C@H](N3CCCC3)CCC[C@@H]21 (racemic) [Reference compound B, reference compound] | 90 | – | activation (% of control) at 1 μM: 90 % of control
5 | CS(=O)(=O)N1CCN(C(=O)Cc2ccc(Cl)c(Cl)c2)C2C(N3CCCC3)CCCC21 (racemic) [Example 23] | 91 | < 10 | –
6 | COC(=O)N1CCN(C(=O)Cc2ccc(C(F)(F)F)c(Cl)c2)[C@@H]2[C@@H](N3CCCC3)CCC[C@@H]21 [Example 93] | 101 | < 10 | –
7 | COC(=O)COC(=O)N1CCN(C(=O)Cc2ccc(Cl)c(Cl)c2)[C@@H]2[C@@H](N3CCCC3)CCC[C@@H]21 [Example 101] | 99 | < 10 | –
8 | O=C(Cc1ccc(Cl)c(Cl)c1)N1CCN(C(=O)NCc2ccccc2)[C@H]2CCC[C@H](N3CCCC3)[C@H]21 [Example 100] | 105 | < 10 | –
9 | O=C(Nc1ccccc1)N1CCN(C(=O)Cc2ccc(Cl)c(Cl)c2)C2C(N3CCCC3)CCCC21 (racemic) [Example 43] | 107 | < 10 | –
10 | O=C(O)CC(=O)N1CCN(C(=O)Cc2ccc(Cl)c(Cl)c2)C2C(N3CCCC3)CCCC21 (racemic) [AD, reference compound] | – | – | activation (% of control) at 1 μM: 22 % of control; activation of the kappa opioid receptors at 1 μM: no or little activation; EC50 [1]: > 1000 nM; pEC50 (read-out: EC50 kappa opioid receptor activation): < 6.00
11 | COC(=O)N1CCN(C(=O)Cc2ccc(Cl)cc2)[C@@H]2[C@@H](N3CC[C@H](O)C3)CCC[C@@H]21 [Example 140] | 103 | 10 to 100 | –
12 | O=C(c1ccccn1)N1CCN(C(=O)Cc2ccc(Cl)c(Cl)c2)C2C(N3CCCC3)CCCC21 (racemic) [Example 32] | 88 | – | –
13 | COC(=O)N1CCN(C(=O)Cc2ccc(Cl)c(Cl)c2)C2C(N3CC(O)C3)CCCC21 (racemic) [Example 71] | – | – | % activation functional assay at 1 μM: 113%; pEC50 (read-out: GTPγS EC50): 7.00 to 8.00
14 | COC(=O)N1CCN(C(=O)Cc2ccc(C(F)(F)F)c(Cl)c2)[C@@H]2[C@@H](N3CC[C@H](O)C3)CCC[C@@H]21 [Example 108] | 100 | < 10 | –
15 | COC(=O)N1CCN(C(=O)Cc2ccc(Cl)c(Cl)c2)C2C(N3CCC(O)C3)CCCC21 (centres unmarked) [Example 53] | – | < 10 | % activation functional assay at 1 μM: 97%; activation (% of control) at 1 μM (1 µM): 97 % of control; EC50 (EC50 (nM) [35S]GTPγS binding): 6.1 nM
16 | CC(C)NC(=O)N1CCN(C(=O)Cc2ccc(Cl)c(F)c2)C2C(N3CCC(O)C3)CCCC21.Cl (centres unmarked) [Example 119] | – | – | % activation functional assay at 1 μM: 102%; pEC50 (read-out: GTPγS EC50): 7.00 to 8.00
17 | COC(=O)C(=O)N1CCN(C(=O)Cc2ccc(Cl)c(Cl)c2)C2C(N3CCCC3)CCCC21.Cl (centres unmarked) [Example 103] | – | – | % activation functional assay at 1 μM: 98%; pEC50 (read-out: GTPγS EC50): > 8.00
18 | NC(=O)c1ccc(C(=O)N2CCN(C(=O)Cc3ccc(Cl)c(Cl)c3)C3C(N4CCCC4)CCCC32)cc1 (racemic) [Example 87] | 109 | – | –
19 | COC(=O)N1CCN(C(=O)Cc2ccc(Cl)c(F)c2)[C@@H]2[C@@H](N3CCCC3)CCC[C@@H]21 [Example 94] | 103 | 10 to 100 | –
20 | COC(=O)COC(=O)N1CCN(C(=O)Cc2ccc(Cl)c(Cl)c2)[C@@H]2[C@@H](N3CC[C@@H](O)C3)CCC[C@@H]21 [Example 105] | 116 | < 10 | –
21 | COC(=O)N1CCN(C(=O)Cc2ccc(Cl)c(Cl)c2)[C@@H]2[C@@H](N(C)C)CCC[C@@H]21 [Example 90] | 96 | < 10 | –
22 | O=C(c1ccco1)N1CCN(C(=O)Cc2ccc(Cl)c(Cl)c2)C2C(N3CCCC3)CCCC21 (racemic) [Example 29] | 96 | – | –
23 | O=C(C1COC1)N1CCN(C(=O)Cc2ccc(Cl)c(Cl)c2)C2C(N3CCCC3)CCCC21 (racemic) [Example 54] | 104 | 10 to 100 | –
24 | CN(C)S(=O)(=O)N1CCN(C(=O)Cc2ccc(Cl)c(Cl)c2)C2C(N3CCCC3)CCCC21 (racemic) [Example 35] | 108 | < 10 | –
25 | CN(C)C(=O)C(=O)N1CCN(C(=O)Cc2ccc(Cl)c(Cl)c2)[C@@H]2[C@@H](N3CCCC3)CCC[C@@H]21.Cl [Example 116] | – | – | % activation functional assay at 1 μM: 111%; pEC50 (read-out: GTPγS EC50): 7.00 to 8.00
26 | NC(=O)C(=O)N1CCN(C(=O)Cc2ccc(Cl)c(Cl)c2)C2C(N3CCCC3)CCCC21 (racemic) [Example 66] | 100 | 10 to 100 | –
